Results from patent US10906909B2, “Treatment of cognitive and mood symptoms in neurodegenerative and neuropsychiatric disorders with ALPHA5-containing GABAA receptor agonists” (UWM Research Foundation, Inc., priority 2016, dated 2021).
“Also recorded” adds a separate entry of the source.

How the values were obtained:
[1] = test system: HEPG2; assay: Cytotoxicity assay (CellTiter-Glo), HEPG2; format: cell-based, human; conditions: 48 hours incubation
Protocol: (§1) Human liver hepatocellular carcinoma (HEPG2) and human embryonic kidney 293 (HEK293) cell lines were purchased (ATCC) and cultured in 75 cm2 flasks (CellStar). Cells were grown in DMEM/High Glucose (Hyclone, #SH3024301) media to which non-essential amino acids (Hyclone, #SH30238.01), 10 mM HEPES (Hyclone, #SH302237.01), 5×106 units of penicillin and streptomycin (Hyclone, #SV30010), and 10% of heat inactivated fetal bovine serum (Gibco, #10082147) were added. Cells were harvested using 0.05% Trypsin (Hyclone, #SH3023601), washed with PBS, and dispensed into sterile white, optical bottom 384-well plates (NUNC, #142762). After three hours, small molecule solutions were transferred with a Tecan Freedom EVO liquid handling system equipped with a 100 nL pin tool (V&P Scientific). The controls (E)-10-(bromotriphenylphosphoranyl)decyl 4-(4-(tert-butyl)phenyl)-4-oxobut-2-enoate (400 μM in DMSO, positive control) and DMSO (negative control). The cells were incubated for 48 hours followed by the addition of CellTiter-Glo™, a luminescence-based cell viability assay (Promega, Madison, Wis.). All luminescence readings were performed on a Tecan Infinite M1000 plate reader. The assay was carried out in quadruplet with three independent runs. The data was normalized to the controls and analyzed by nonlinear regression (GraphPad Prism).

[2] = test system: C57B1/6 male mice; assay: Forced swim test (FST); format: in vivo, mouse; conditions: vs vehicle
Protocol: C57B1/6 male mice were ordered from Jackson Laboratories at 8 weeks-old and were group housed (4-5 mice/cage) under normal housing conditions (12 h light ON cycle starting at 7 am/water and food ad libitum) for one week. During this week, animals were handled in order to habituate them to the experimenter and to reduce their anxiety-like response during behavioral testing.
All drugs were diluted in a vehicle solution containing 85% H2O, 14% propylene glycol (Sigma Aldrich) and 1% Tween 80 (Sigma Aldrich). Working solutions were prepared at a concentration of 20 mg/mL and administered i.p. adjusted to the body weight of each animal. Doses used were either 1, 5 or 10 mg/kg. For all FST experiments, animals were injected i.p. with vehicle or αPAM.
Mice were tested in the forced swim test (FST) (measure of despair-like behavior used for the assessment of antidepressant efficacy). Animals were sub-chronically injected three times (24, 20 and 1 hour before testing) as per standard methods in the field for testing potential antidepressant compounds.
One hour after the last injection, mice were placed in an inescapable transparent tank filled with water (25 cm, 25-26° C.), where they are unable to touch the bottom and unable to jump out of the tank. Animal were recorded for a period of 6 minutes and a manual count of the immobile time in the tank was measured for the 2-6 minutes period by an experimenter blinded to the mouse treatment history. Immobility is defined as the minimum amount of movement to stay afloat. Compounds that reduced immobility in the FST are considered to have potential antidepressant actions.

[3] = test system: HEK293; assay: Cytotoxicity assay (CellTiter-Glo), HEK293; format: cell-based, human; conditions: 48 hours incubation
Protocol: as §1

[4] = Pharmacokinetics in mice (plasma, liver, brain); conditions: for concentration at 20 min: C57/BL6, mouse, ip, 10 mg/kg
[5] = target: T1, alpha 5 subunit GABAA receptor (Rattus norvegicus, UniProt P18508+P19969); assay: Electrophysiology, whole-cell patch clamp in transfected HEK-293T cells; format: cell-based; conditions: for percent of response to GABA: 1 μM compound, HEK-293T cells transfected with alpha 5 subunit; for relative size of response to GABA among the four compounds: 1 μM, alpha 5, FIG. 26
T1 construct: Full-length cDNAs for GABAA receptor subtypes; expressed in transfected cells; host or cells: HEK-293T (GenHunter, Nashville, Tenn.), transient calcium phosphate transfection
T1 sequence (P19969 32-464 limits assumed): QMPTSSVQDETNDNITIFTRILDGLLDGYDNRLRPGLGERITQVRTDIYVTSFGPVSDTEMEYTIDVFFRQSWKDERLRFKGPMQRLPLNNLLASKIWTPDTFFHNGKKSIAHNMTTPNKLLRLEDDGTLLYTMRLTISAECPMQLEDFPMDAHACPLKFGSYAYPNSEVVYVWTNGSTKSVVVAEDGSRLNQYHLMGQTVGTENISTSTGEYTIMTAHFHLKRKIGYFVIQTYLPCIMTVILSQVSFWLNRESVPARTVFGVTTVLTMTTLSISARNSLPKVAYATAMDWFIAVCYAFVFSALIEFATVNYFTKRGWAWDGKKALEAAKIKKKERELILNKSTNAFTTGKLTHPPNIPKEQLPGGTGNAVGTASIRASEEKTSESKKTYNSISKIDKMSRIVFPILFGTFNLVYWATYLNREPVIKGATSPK
T1 sequence (P63079 26-473 partner): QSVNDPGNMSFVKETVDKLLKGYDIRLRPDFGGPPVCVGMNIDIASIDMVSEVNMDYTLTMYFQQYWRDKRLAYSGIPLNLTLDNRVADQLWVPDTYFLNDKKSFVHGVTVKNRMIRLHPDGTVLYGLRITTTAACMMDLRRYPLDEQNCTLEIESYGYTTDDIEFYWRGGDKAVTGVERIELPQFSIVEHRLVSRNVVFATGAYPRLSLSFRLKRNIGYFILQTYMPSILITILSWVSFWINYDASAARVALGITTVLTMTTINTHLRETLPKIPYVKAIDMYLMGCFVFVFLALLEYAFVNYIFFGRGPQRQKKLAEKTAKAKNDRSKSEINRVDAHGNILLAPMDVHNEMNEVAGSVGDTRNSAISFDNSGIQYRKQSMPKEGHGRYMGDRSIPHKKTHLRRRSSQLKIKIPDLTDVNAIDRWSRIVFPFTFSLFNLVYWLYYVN
T1 sequence (P18508 39-466): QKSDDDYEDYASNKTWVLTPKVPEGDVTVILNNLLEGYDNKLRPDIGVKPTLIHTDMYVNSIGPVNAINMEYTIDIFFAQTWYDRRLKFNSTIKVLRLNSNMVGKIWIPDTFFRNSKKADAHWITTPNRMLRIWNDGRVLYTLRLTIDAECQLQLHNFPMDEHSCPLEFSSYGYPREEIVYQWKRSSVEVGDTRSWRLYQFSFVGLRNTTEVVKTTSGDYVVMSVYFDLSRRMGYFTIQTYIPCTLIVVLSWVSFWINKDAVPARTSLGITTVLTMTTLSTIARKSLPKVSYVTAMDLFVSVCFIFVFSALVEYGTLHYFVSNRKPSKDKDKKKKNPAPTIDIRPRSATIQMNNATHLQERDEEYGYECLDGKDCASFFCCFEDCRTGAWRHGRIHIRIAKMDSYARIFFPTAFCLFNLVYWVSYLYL
Description: Transfection of Mammalian Cells and Electrophysiological Recordings. Full-length cDNAs for GABAA receptor subtypes (generously provided by Dr. Robert Macdonald, Vanderbilt University and Dr. David Weiss, University of Texas Health Science Center, San Antonio, Tex.) in mammalian expression vectors were transfected into the human embryonic kidney cell line HEK-293T (GenHunter, Nashville, Tenn.) (Chestnut et al, 1996, J. Immunol. Methods 193, 17-27). All subtypes were rat clones except for α2, which was a human clone. Cells were maintained in Dulbecco's modified Eagle's medium (DMEM) plus 10% fetal bovine serum, 100 IU/mL penicillin, and 100 μg/mL streptomycin.
HEK-293T cells were transiently transfected using calcium phosphate precipitation. Plasmids encoding GABAA receptor subtype cDNAs were added to the cells in 1:1:1 ratios (α:β:γ) of 2 μg each.31 For identification of positively transfected cells, 1 μg of the plasmid pHook-1 (Invitrogen Life Technologies, Grand Island N.Y.) containing cDNA encoding the surface antibody sFv was also transfected into the cells.11 Following a 4-6 h incubation at 3% CO2, the cells were treated with a 15% glycerol solution in BBS buffer (50 mM BES(N,N-bis[2-hydroxyethyl]-2-aminoethanesulfonic acid), 280 mM NaCl, 1.5 mM Na2HPO4) for 30 s. The selection procedure for pHook expression was performed 18-52 h later. The cells were passaged and mixed for 30-60 min with 3-5 μL of magnetic beads coated with antigen for the pHook antibody (approximately 6×105 beads).11 Bead-coated cells were isolated using a magnetic stand. The selected cells were resuspended into supplemented DMEM, plated onto glass coverslips treated with poly L-lysine and collagen, and used for recordings the next day.
Cells were patch-clamped at −50 mV in the whole-cell recording configuration. The bath solution consisted of (in mM): 142 NaCl, 8.1 KCl, 6 MgCl2, 1 CaCl2), and 10 HEPES (4-(2-hydroxyethyl)-1-piperazineethanesulfonic acid) with pH=7.4 and osmolarity adjusted to 295-305 mOsm. Recording electrodes were filled with a solution of (in mM) 153 KCl, 1 MgCl2, 5 K-EGTA (ethylene glycol-bis(β-aminoethyl ether N,N,N′N′-tetraacetate), and 10 HEPES with pH=7.4 and osmolarity adjusted to 295-305 mOsm. GABA was diluted into the bath solution from freshly made or frozen stocks in water. Compounds were dissolved in DMSO and diluted into bath solution with the highest DMSO level applied to cells of 0.01%. Patch pipettes were pulled from borosilicate glass (World Precision Instruments, Sarasota, Fla.) on a two-stage puller (Narishige, Japan) to a resistance of 5-10 MO. Solutions containing GABA or GABA+ compounds were applied to cells for 5 s. using a 3-barrelled solution delivery device controlled by a computer-driven stepper motor (SF-77B, Harvard Apparatus, Holliston, Mass., open tip exchange time of <50 ms). There was a continuous flow of external solution through the chamber. Currents were recorded with an Axon 200B (Foster City, Calif.) patch clamp amplifier.
Whole-cell currents were analyzed using the programs Clampfit (pClamp9 suite, Axon Instruments, Foster City, Calif.) and Prism (Graphpad, San Diego, Calif.). Concentration-response data was fit with a four-parameter logistic equation (current=[minimum current+(maximum current−minimum current)]/1+(10(logEC50−log[modulator])n) where n represents the Hill number. All fits were made to normalized data with current expressed as a percentage of the response to GABA alone for each cell.

[6] = 5 mg/kg i.p. 24, 20, 1 hour before testing
[7] = 10 mg/kg i.p. 24, 20, 1 hour before testing

| Structure (SMILES) | HEPG2 LD50 [1] | time spent immobile in the FST [2, 6] | HEK293 LD50 [3] | molar concentration range reached in mouse brain tissue ([4]; i.p. dosing at 3 mg/kg) | percent of response to GABA [5] | relative size of response to GABA among the four compounds [5] | time spent immobile in the FST [2, 7] | molar concentration range reached in mouse brain tissue ([4]; 10 mg/kg dose i.p.) | concentration at 20 min ([4]; brain) | concentration at 20 min ([4]; liver) | concentration at 20 min ([4]; plasma) | brain penetrance ([4]; mice and rats) | brain concentrations, suitability for CNS-active drug ([4]; pilot cassette study, mice and rats) |
| --- | --- | --- | --- | --- | --- | --- | --- | --- | --- | --- | --- | --- | --- |
| C#Cc1ccc2c(c1)C(c1ccccc1F)=N[C@@H](C)c1c(C(=O)N(C)C)ncn1-2 [GL-I-54, (S)-8-ethynyl-6-(2-fluorophenyl)-N,N,4-trimethyl-4H-benzo[f]imidazo[1,5-a][1,4]diazepine-3-carboxamide] | >400 µM | significant decrease in immobility time; also recorded: significant antidepressant-like action | >400 µM | high submicromolar to low micromolar values |  |  |  |  |  |  |  |  |  |
| C#Cc1ccc2c(c1)C(c1ccccc1F)=N[C@H](C)c1c(C(=O)N(C)C)ncn1-2 [GL-II-73, (R)-8-ethynyl-6-(2-fluorophenyl)-N,N,4-trimethyl-4H-benzo[f]imidazo[1,5-a][1,4]diazepine-3-carboxam] | >400 µM |  | >200 µM |  | increased in the percent of response to GABA | greatest response | significantly decreased the immobility; also recorded: significant antidepressant-like efficacy | micromolar range |  |  |  |  |  |
| C#Cc1ccc2c(c1)C(c1ccccc1F)=N[C@H](C)c1c(C(=O)NCC)ncn1-2 [GL-II-74, (R)—N-ethyl-8-ethynyl-6-(2-fluorophenyl)-4-methyl-4H-benzo[f]imidazo[1,5-a][1,4]diazepine-3-carboxamide] |  | significantly decreased the immobility; also recorded: significant antidepressant-like efficacy |  |  | increased in the percent of response to GABA | greatest response | significantly decreased the immobility; also recorded: significant antidepressant-like efficacy | micromolar range |  |  |  |  |  |
| C#Cc1ccc2c(c1)C(c1ccccc1F)=N[C@H](C)c1c(C(=O)NC3CC3)ncn1-2 [GL-II-75, (R)—N-cyclopropyl-8-ethynyl-6-(2-fluorophenyl)-4-methyl-4H-benzo[f]imidazo[1,5-a][1,4]diazepine-3-carboxamide] |  | significantly decreased the immobility; also recorded: significant antidepressant-like efficacy |  |  | increased in the percent of response to GABA | greatest response | significantly decreased the immobility; also recorded: significant antidepressant-like efficacy | micromolar range |  |  |  |  |  |
| C#Cc1ccc2c(c1)C(c1ccccc1F)=N[C@H](C)c1c(C(=O)N3CCCC3)ncn1-2 [GL-II-76, (R)-(8-ethynyl-6-(2-fluorophenyl)-4-methyl-4H-benzo[f]imidazo[1,5-a][1,4]diazepin-3-yl)(pyrrolidin-1-yl)methanone] | >400 µM |  | >100 µM |  | increased in the percent of response to GABA |  |  |  | 204 ± 101 ng/g | 4360 ng/g | 605 ± 198 ng/mL | brain-penetrant at the exception of GI-II-76 | suboptimal |
| C#Cc1ccc2c(c1)C(c1ccccc1F)=N[C@H](C)c1c(C(=O)NC)ncn1-2 [MP-III-022] | >200 µM |  | >100 µM |  |  |  | significant decrease in immobility time; also recorded: significant antidepressant-like action |  |  |  |  |  |  |
